Source: patent US20160144021A1, “Vaccine Composition And Method Of Use” (MEDIMMUNE, LLC, priority 2013, published 2016)

Assays:
Type in all cases: in vivo
RSV A2 [1] = test: Lung viral titers by plaque assay after RSV challenge, naive BALB/c mice
RSV A2 [2] = test: GFP-tagged RSV A2 micro-neutralization of sera, naive BALB/c mice; conditions: day 28, prior to challenge, 0.3 μg RSV sF days 0 and 14
[3] = system: RSV-F MHC I and MHC II restricted peptides; test: IFNγ ELISPOT of splenocytes, naive BALB/c mice; conditions: Day 32, 4 days post challenge, MHC I F peptide
[4] = system: RSV-F-derived MHC I restricted peptide; test: Granzyme B ELISPOT of splenocytes, naive BALB/c mice; conditions: splenocytes 4 days post challenge
Description: FIGS. 1A-F are graphs showing immune responses to adjuvanted RSV sF vaccines in naïve BALB/c mice. Mice (N=7 per group) were immunized at days 0 and 14 with the indicated vaccines and challenged with 6 log10 PFU of RSV at day 28. Representative data shown from 1 of 2 experiments run with all groups. (A) Lung Viral Titers. Residual virus in the lungs of animals 4 days post challenge was quantified by plaque assay. Individual results are presented in log10, along with a bar representing the group geometric mean. Individuals with undetectable titers were scored at the assay limit of detection (LOD), ˜1.4 log10. (B) Serum RSV-GFP Neutralizing Titers. […] Individuals with undetectable titers were scored at the assay limit of detection (LOD) of 3.3 log2, indicated by a dashed line. […] Shown are the specific IFNγ, IL-5, IL-13, and IL-17 responses to an immunodominant MHC II restricted RSV-F peptide pool calculated by subtracting media control values from test values in multiplexed cytokine analysis. […] Day 28 sera (n=7 per group) were evaluated for F-specific IgG1 and IgG2a isotypes by endpoint titer ELISA. […]
Th1-type responses to a vaccine such as those seen with RSV sF+GLA-SE may support the development of strong CD8 T cell responses. […] To evaluate the cytolytic potential of these responding cells, we evaluated F-specific Granzyme B secretion by ELISPOT.

RSV A2 [5] = test: Lung and nose viral titers by plaque assay after RSV challenge, naive cotton rats; conditions: 0.3 μg RSV sF IM, 4 days post challenge
RSV A2 [6] = test: RSV A2-GFP microneutralization of sera, 1x RSV seropositive BALB/c mice
Description: Naïve female BALB/c mice were divided into designated vaccine cohorts of 8-9 mice each and dosed at Day 0. […] Successful seroconversion was confirmed by F-specific ELISA endpoint titers on Day 0. Groups of 9 mice were inoculated intramuscularly (IM) with the vaccine formulations at Day 0. 3 mice per group were evaluated for cellular immune responses at 10 days post […], while the remaining 5-6 animals per group were followed for serum antibody responses through Day 73.
Serology readouts were made at Days 0, 14, 28, 42, 56, and 73 for each group. Animals were lightly anesthetized with isoflurane and bled intraorbitally. Serum was separated and stored at −20° C. and thawed for testing. Total anti-F IgG were measured at each timepoint, with anti-F IgG1 and anti-F IgG2a ELISA endpoint dilution titers measured at Day 0 and Day 42. RSV neutralization titer was determined by a RSV A2-GFP microneutralization assay. The polyclonal nature of the anti-F IgG response was evaluated on Day 42 by competition ELISA with site-specific monoclonal antibodies to RSV-F. Anti-F IgA endpoint dilution titers were measured at Day 14 for each group.

RSV A2 [7] = test: RSV microneutralization of sera, highly (2x) RSV seropositive BALB/c mice; conditions: very small amounts of antigen
Description: One hundred three female BALB/c mice (Charles River), ages 6-8 weeks old, were divided into 13 groups. Group 1 had 7 mice and groups 2 through 13 had 8 mice. Following anaesthetization groups 1 through 12 were dosed with 1×10^6 plaque forming units (PFU) in 100 μL of live RSV via an intranasal (IN) route on Day 0 and Day 35. Group 13 was not exposed to RSV. On Day 56, groups 1 through 11 were immunized with placebo (PBS) or vaccine article via an intramuscular (IM) route following anesthesia with isoflurane. The vaccine articles were formulated in a total of 100 μL with 50 μL given in each hind limb. Group 12 was anesthetized with isoflurane and immunized with 1×10^6 PFU in 100 μL of live RSV via an IN route. […] Sera were obtained from retro orbital blood collection at study days 0, 28, 56 70 and 84, separated from whole blood and stored at −20° C. until evaluated. Spleens from 4 animals in each group were harvested for T cell assays on Day 67, 11 days post immunization, or at day 88, 4 days post challenge. Lung cytokines quantified at 4 days after challenge in individual lung homogenates by luminex assay (Milipore).

Substance: RSV sF: RSV soluble F protein, amino acids 1-524 of the RSV A2 F sequence lacking the transmembrane domain, given without adjuvant
- animals having detectable lung viral titers (RSV A2 [1]; 4 days post challenge): 4/7
- lung protection (full = 100-fold reduction vs PBS) (RSV A2 [1]; 4 days post challenge): partial lung protection
- detectable lung viral titers (individual animals) (RSV A2 [1]; naive BALB/c, IM days 0 and 14, 0.3 μg RSV sF, challenge day 28, 4 days post challenge): 2.3-3.0 log10 pfu/gram
- serum RSV neutralizing titers (RSV A2 [2]): 4.1 log2
- F-specific CD8 IFNγ ELISPOT [3]: ~30 spot forming units (SFU)/million cells
- F-specific Granzyme B ELISPOT responses (mean) [4]: 18
- mean RSV titer in the lungs (RSV A2 [5]): 5.4 log10 pfu/gram
- mean RSV titer in the nose (RSV A2 [5]): 4.9 log10 pfu/gram
- mean RSV neutralizing titers (RSV A2 [6]; Day 14, dose 0.4 μg RSV sF assumed from order): 8.32 log2
- mean RSV neutralizing titers (RSV A2 [6]; Day 14, dose 10 μg RSV sF assumed from order): 8.66 log2
- mean RSV neutralizing titers (RSV A2 [6]; Day 14, second value, dose 2 μg RSV sF assumed from order): 7.82 log2
- neutralization level lower than that of the highest adjuvanted RSV sF dose of 50 μg (RSV A2 [7]): approximately 6 fold
